Results: US20230321287A1, “RADIOLABELLED GRPR-ANTAGONIST FOR USE AS THERAGNOSTIC” (NOVARTIS AG, priority 2019, published 2023)

Assays:
GRPR [1] = molecular target: T1, GRPR (Homo sapiens, UniProt P30550); test: lesion-level analysis, [68Ga]-NeoB PET versus conventional imaging; format: in vivo; set-up: from tissue; host or cells: tumour lesions in patients (breast, prostate, colorectal, NSCL, SCL cancer), in vivo
Method: PET/CT or PET/MRI imaging is performed after the compound 1 administration ideally at 2 h 30 min ±30 min.
The spleen is the reference region to assess pathological [68Ga]-NeoB uptake.
NeoB in patients with malignancies known to overexpress GRPR.
Target sequence in this assay (P30550 whole entry): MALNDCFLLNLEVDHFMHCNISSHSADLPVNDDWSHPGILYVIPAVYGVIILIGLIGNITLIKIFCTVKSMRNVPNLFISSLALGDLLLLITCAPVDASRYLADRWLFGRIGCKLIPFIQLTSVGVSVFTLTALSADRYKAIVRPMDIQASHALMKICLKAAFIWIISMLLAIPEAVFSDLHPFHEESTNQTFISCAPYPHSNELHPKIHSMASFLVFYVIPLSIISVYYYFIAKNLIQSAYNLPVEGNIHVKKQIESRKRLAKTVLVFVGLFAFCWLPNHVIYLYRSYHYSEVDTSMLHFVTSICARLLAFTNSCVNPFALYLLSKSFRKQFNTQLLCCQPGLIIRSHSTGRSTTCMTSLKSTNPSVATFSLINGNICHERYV

[2] = maximum injected activity of 250 MBq
GRPR [3] = molecular target: T1, GRPR; conditions: GRPR expressed in breast, prostate and GIST; non-clinical models; cited from earlier work
Target sequence in this assay (P30550 whole entry, species assumed): as the sequence (P30550 whole entry) above

[4] = in vivo
GRPR [5] = molecular target: T1, GRPR; conditions: non-clinical models; cited from earlier work
Target sequence in this assay (P30550 whole entry, species assumed): as the sequence (P30550 whole entry) above

[6] = 6 patients with GIST; cited from earlier work

CC(C)CC(CC(C)C)NC(=O)[C@H](Cc1cnc[nH]1)NC(=O)CNC(=O)[C@@H](NC(=O)[C@H](C)NC(=O)[C@H](Cc1c[nH]c2ccccc12)NC(=O)[C@H](CCC(N)=O)NC(=O)[C@@H](Cc1ccccc1)NC(=O)COCC(=O)Nc1ccc(CNC(=O)CN2CCN(CC(=O)O)CCN(CC(=O)O)CCN(CC(=O)O)CC2)cc1)C(C)C [[68Ga]-NeoB, metal not drawn]
Number of lesions (GRPR [1]; Breast N=5, [68Ga]-NeoB Negative, conventional imaging Positive): 44
Number of lesions (GRPR [1]; Breast N=5, [68Ga]-NeoB Negative, conventional imaging Total): 44
Number of lesions (GRPR [1]; Breast N=5, [68Ga]-NeoB Positive, conventional imaging Negative): 37
Number of lesions (GRPR [1]; Breast N=5, [68Ga]-NeoB Positive, conventional imaging Positive): 48
Number of lesions (GRPR [1]; Breast N=5, [68Ga]-NeoB Positive, conventional imaging Total): 85
Number of lesions (GRPR [1]; Breast N=5, [68Ga]-NeoB Total, conventional imaging Negative): 37
Number of lesions (GRPR [1]; Breast N=5, [68Ga]-NeoB Total, conventional imaging Positive): 92
Number of lesions (GRPR [1]; Breast N=5, [68Ga]-NeoB Total, conventional imaging Total): 129
lesions identified by conventional imaging also identified by [68Ga]-NeoB (GRPR [1]; Breast cancer N=5): 52.2%
Number of lesions (GRPR [1]; Colorectal N=5, [68Ga]-NeoB Negative, conventional imaging Positive): 43
Number of lesions (GRPR [1]; Colorectal N=5, [68Ga]-NeoB Negative, conventional imaging Total): 43
Number of lesions (GRPR [1]; Colorectal N=5, [68Ga]-NeoB Positive, conventional imaging Negative): 0
Number of lesions (GRPR [1]; Colorectal N=5, [68Ga]-NeoB Positive, conventional imaging Positive): 18
Number of lesions (GRPR [1]; Colorectal N=5, [68Ga]-NeoB Positive, conventional imaging Total): 18
Number of lesions (GRPR [1]; Colorectal N=5, [68Ga]-NeoB Total, conventional imaging Negative): 0
Number of lesions (GRPR [1]; Colorectal N=5, [68Ga]-NeoB Total, conventional imaging Positive): 61
Number of lesions (GRPR [1]; Colorectal N=5, [68Ga]-NeoB Total, conventional imaging Total): 61
lesions identified by conventional imaging also identified by [68Ga]-NeoB (GRPR [1]; Colorectal cancer N=5): 29.5%
Number of lesions (GRPR [1]; NSCL N=3, [68Ga]-NeoB Negative, conventional imaging Positive): 20
Number of lesions (GRPR [1]; NSCL N=3, [68Ga]-NeoB Negative, conventional imaging Total): 20
Number of lesions (GRPR [1]; NSCL N=3, [68Ga]-NeoB Positive, conventional imaging Negative): 0
Number of lesions (GRPR [1]; NSCL N=3, [68Ga]-NeoB Positive, conventional imaging Positive): 10
Number of lesions (GRPR [1]; NSCL N=3, [68Ga]-NeoB Positive, conventional imaging Total): 10
Number of lesions (GRPR [1]; NSCL N=3, [68Ga]-NeoB Total, conventional imaging Negative): 0
Number of lesions (GRPR [1]; NSCL N=3, [68Ga]-NeoB Total, conventional imaging Positive): 30
Number of lesions (GRPR [1]; NSCL N=3, [68Ga]-NeoB Total, conventional imaging Total): 30
lesions identified by conventional imaging also identified by [68Ga]-NeoB (GRPR [1]; NSCL cancer N=3): 33.3%
Number of lesions (GRPR [1]; Prostate N=5, [68Ga]-NeoB Negative, conventional imaging Positive): 59
Number of lesions (GRPR [1]; Prostate N=5, [68Ga]-NeoB Negative, conventional imaging Total): 59
Number of lesions (GRPR [1]; Prostate N=5, [68Ga]-NeoB Positive, conventional imaging Negative): 1
Number of lesions (GRPR [1]; Prostate N=5, [68Ga]-NeoB Positive, conventional imaging Positive): 10
Number of lesions (GRPR [1]; Prostate N=5, [68Ga]-NeoB Positive, conventional imaging Total): 11
Number of lesions (GRPR [1]; Prostate N=5, [68Ga]-NeoB Total, conventional imaging Negative): 1
Number of lesions (GRPR [1]; Prostate N=5, [68Ga]-NeoB Total, conventional imaging Positive): 69
Number of lesions (GRPR [1]; Prostate N=5, [68Ga]-NeoB Total, conventional imaging Total): 70
lesions identified by conventional imaging also identified by [68Ga]-NeoB (GRPR [1]; Prostate cancer N=5): 14.5%
Number of lesions (GRPR [1]; SCL N=1, [68Ga]-NeoB Negative, conventional imaging Positive): 1
Number of lesions (GRPR [1]; SCL N=1, [68Ga]-NeoB Negative, conventional imaging Total): 1
Number of lesions (GRPR [1]; SCL N=1, [68Ga]-NeoB Positive, conventional imaging Negative): 0
Number of lesions (GRPR [1]; SCL N=1, [68Ga]-NeoB Positive, conventional imaging Positive): 1
Number of lesions (GRPR [1]; SCL N=1, [68Ga]-NeoB Positive, conventional imaging Total): 1
Number of lesions (GRPR [1]; SCL N=1, [68Ga]-NeoB Total, conventional imaging Negative): 0
Number of lesions (GRPR [1]; SCL N=1, [68Ga]-NeoB Total, conventional imaging Positive): 2
Number of lesions (GRPR [1]; SCL N=1, [68Ga]-NeoB Total, conventional imaging Total): 2
lesions identified by conventional imaging also identified by [68Ga]-NeoB (GRPR [1]; SCL cancer N=1): 50%
Number of lesions (GRPR [1]; overall cancer N=19, Nodal, [68Ga]-NeoB Negative, conventional imaging Positive): 36
Number of lesions (GRPR [1]; overall cancer N=19, Nodal, [68Ga]-NeoB Negative, conventional imaging Total): 36
Number of lesions (GRPR [1]; overall cancer N=19, Nodal, [68Ga]-NeoB Positive, conventional imaging Negative): 1
Number of lesions (GRPR [1]; overall cancer N=19, Nodal, [68Ga]-NeoB Positive, conventional imaging Positive): 18
Number of lesions (GRPR [1]; overall cancer N=19, Nodal, [68Ga]-NeoB Positive, conventional imaging Total): 19
Number of lesions (GRPR [1]; overall cancer N=19, Nodal, [68Ga]-NeoB Total, conventional imaging Negative): 1
Number of lesions (GRPR [1]; overall cancer N=19, Nodal, [68Ga]-NeoB Total, conventional imaging Positive): 54
Number of lesions (GRPR [1]; overall cancer N=19, Nodal, [68Ga]-NeoB Total, conventional imaging Total): 55
Number of lesions (GRPR [1]; overall cancer N=19, Overall, [68Ga]-NeoB Negative, conventional imaging Positive): 167
Number of lesions (GRPR [1]; overall cancer N=19, Overall, [68Ga]-NeoB Negative, conventional imaging Total): 167
Number of lesions (GRPR [1]; overall cancer N=19, Overall, [68Ga]-NeoB Positive, conventional imaging Negative): 38
Number of lesions (GRPR [1]; overall cancer N=19, Overall, [68Ga]-NeoB Positive, conventional imaging Positive): 87
Number of lesions (GRPR [1]; overall cancer N=19, Overall, [68Ga]-NeoB Positive, conventional imaging Total): 125
Number of lesions (GRPR [1]; overall cancer N=19, Overall, [68Ga]-NeoB Total, conventional imaging Negative): 38
Number of lesions (GRPR [1]; overall cancer N=19, Overall, [68Ga]-NeoB Total, conventional imaging Positive): 254
Number of lesions (GRPR [1]; overall cancer N=19, Overall, [68Ga]-NeoB Total, conventional imaging Total): 292
Number of lesions (GRPR [1]; overall cancer N=19, Skeletal, [68Ga]-NeoB Negative, conventional imaging Positive): 85
Number of lesions (GRPR [1]; overall cancer N=19, Skeletal, [68Ga]-NeoB Negative, conventional imaging Total): 85
Number of lesions (GRPR [1]; overall cancer N=19, Skeletal, [68Ga]-NeoB Positive, conventional imaging Negative): 12
Number of lesions (GRPR [1]; overall cancer N=19, Skeletal, [68Ga]-NeoB Positive, conventional imaging Positive): 17
Number of lesions (GRPR [1]; overall cancer N=19, Skeletal, [68Ga]-NeoB Positive, conventional imaging Total): 29
Number of lesions (GRPR [1]; overall cancer N=19, Skeletal, [68Ga]-NeoB Total, conventional imaging Negative): 12
Number of lesions (GRPR [1]; overall cancer N=19, Skeletal, [68Ga]-NeoB Total, conventional imaging Positive): 102
Number of lesions (GRPR [1]; overall cancer N=19, Skeletal, [68Ga]-NeoB Total, conventional imaging Total): 114
Number of lesions (GRPR [1]; overall cancer N=19, Skin/Superficial, [68Ga]-NeoB Negative, conventional imaging Positive): 1
Number of lesions (GRPR [1]; overall cancer N=19, Skin/Superficial, [68Ga]-NeoB Negative, conventional imaging Total): 1
Number of lesions (GRPR [1]; overall cancer N=19, Skin/Superficial, [68Ga]-NeoB Positive, conventional imaging Negative): 0
Number of lesions (GRPR [1]; overall cancer N=19, Skin/Superficial, [68Ga]-NeoB Positive, conventional imaging Positive): 2
Number of lesions (GRPR [1]; overall cancer N=19, Skin/Superficial, [68Ga]-NeoB Positive, conventional imaging Total): 2
Number of lesions (GRPR [1]; overall cancer N=19, Skin/Superficial, [68Ga]-NeoB Total, conventional imaging Negative): 0
Number of lesions (GRPR [1]; overall cancer N=19, Skin/Superficial, [68Ga]-NeoB Total, conventional imaging Positive): 3
Number of lesions (GRPR [1]; overall cancer N=19, Skin/Superficial, [68Ga]-NeoB Total, conventional imaging Total): 3
Number of lesions (GRPR [1]; overall cancer N=19, Soft Tissus/Visceral, [68Ga]-NeoB Negative, conventional imaging Positive): 45
Number of lesions (GRPR [1]; overall cancer N=19, Soft Tissus/Visceral, [68Ga]-NeoB Negative, conventional imaging Total): 45
Number of lesions (GRPR [1]; overall cancer N=19, Soft Tissus/Visceral, [68Ga]-NeoB Positive, conventional imaging Negative): 25
Number of lesions (GRPR [1]; overall cancer N=19, Soft Tissus/Visceral, [68Ga]-NeoB Positive, conventional imaging Positive): 50
Number of lesions (GRPR [1]; overall cancer N=19, Soft Tissus/Visceral, [68Ga]-NeoB Positive, conventional imaging Total): 75
Number of lesions (GRPR [1]; overall cancer N=19, Soft Tissus/Visceral, [68Ga]-NeoB Total, conventional imaging Negative): 25
Number of lesions (GRPR [1]; overall cancer N=19, Soft Tissus/Visceral, [68Ga]-NeoB Total, conventional imaging Positive): 95
Number of lesions (GRPR [1]; overall cancer N=19, Soft Tissus/Visceral, [68Ga]-NeoB Total, conventional imaging Total): 120
lesions identified by conventional imaging also identified by [68Ga]-NeoB (GRPR [1]; regardless the cancer type, N=19): 34.3%
lesions identified by conventional imaging also identified by [68Ga]-NeoB (GRPR [1]; soft tissue and visceral tissue regardless the cancer type): 52.6%
estimated effective dose per exam [2]: 7.25 mSv
affinity to the GRPR (GRPR [3]): high affinity
calculated human dose extrapolated from animal model [4]: 0.039 mSv/MBq
internalization upon binding to the specific receptor (GRPR [5]): low degree of internalization
effective dose, mean [6]: 0.029 ± 0.06 mSv/MBq
